What all share (experiment): Bacterial growth minimal inhibitory concentration (broth microdilution, CLSI M7-A7)
One assay deals with E. coli ATCC25922. In kind it is cell-based, Escherichia coli. As to conditions: for MIC: Escherichia coli. On the procedure:
(§1) Minimal Inhibitory Concentrations (MICs; mg/L) were determined in cation-adjusted Mueller-Hinton Broth by a microdilution method following the description given in “Methods for Dilution Antimicrobial Susceptibility Tests for Bacteria that Grow Aerobically”, Approved standard, 7th ed., Clinical and Laboratory Standards Institute (CLSI) Document M7-A7, Wayne, Pa., USA (2006).
(§2) All Example compounds, except the compound of Example 62, were tested against several Gram-positive and Gram-negative bacteria. […] K. pneumoniae A-651 and Acinetobacter baumannii T6474 are multiply-resistant strains (in particular quinolone-resistant), while E. coli ATCC25922 and P. aeruginosa ATCC27853 are quinolone-sensitive strains.

For the next assay, the system named is P. aeruginosa ATCC27853. It is filed as cell-based, Pseudomonas aeruginosa. As to conditions: for MIC: Pseudomonas aeruginosa. On the procedure: as §1, §2
For assay [1], the system named is Acinetobacter baumannii T6474. It is filed as cell-based. Particulars: for MIC: Acinetobacter baumannii. On the procedure:
as §1, §2

Another assay relates to K. pneumoniae A-651. It is filed as cell-based, Klebsiella pneumoniae. Particulars: for MIC: Klebsiella pneumoniae. The procedure: as §1, §2
[2] abbreviates: cation-adjusted Mueller-Hinton Broth, microdilution, quinolone-sensitive strain.
[3] abbreviates: cation-adjusted Mueller-Hinton Broth, microdilution, multiply-resistant (quinolone-resistant) strain.
Setting [4] is: ATCC25922, cation-adjusted Mueller-Hinton Broth, microdilution, quinolone-sensitive strain, read-out: MIC for E. coli ATCC25922.
Where [5] appears, read: ATCC27853, cation-adjusted Mueller-Hinton Broth, microdilution, quinolone-sensitive strain, read-out: MIC for P. aeruginosa ATCC27853.
[6] abbreviates: T6474, cation-adjusted Mueller-Hinton Broth, microdilution, multiply-resistant (quinolone-resistant) strain, read-out: MIC for A. Baumannii T6474.
Where [7] appears, read: A651, cation-adjusted Mueller-Hinton Broth, microdilution, multiply-resistant (quinolone-resistant) strain, read-out: MIC for K. Pneumoniae A-651.

17 molecules from patent publication US9802901B2, “Antibacterial 2H-indazole derivatives” (priority 2013, dated 2017) can be followed below.

≈ marks a conversion by molar mass, not a printed value. Where a name gives a salt, the structure may show the parent alone. Read-outs that look alike come from different tables or passages of the source. A value given as a limit tells only on which side of the number the result lay.

Regarding `C[C@H](O)c1ccc(C#Cc2ccc3nn(CC[C@](C)(C(=O)NO)S(C)(=O)=O)cc3c2)cc1` [Example 34], the “MIC for E. coli ATCC25922” value in the assay with E. coli ATCC25922 (setting [2]) was found to be 0.063 µg/mL. The “MIC for P. aeruginosa ATCC27853” value in the assay on P. aeruginosa ATCC27853 (setting [2]) was 0.5 µg/mL. For the same molecule, the “MIC for A. Baumannii T6474” value in assay [1] (setting [3]) came out at 1 µg/mL. In addition, in the assay on K. pneumoniae A-651 (setting [3]), the “MIC for K. Pneumoniae A-651” value came to 0.125 µg/mL.

Usually MIC stands for the smallest concentration in the dilution series that meets the test's criterion for growth inhibition. For the molecule `C[C@@](CCn1cc2cc(-c3ccc(OC(F)(F)F)cc3F)ccc2n1)(C(=O)NO)S(C)(=O)=O` [Example 35, (R)-4-[5-(2-fluoro-4-trifluoromethoxy-phenyl)-indazol-2-yl]-N-hydroxy-2-methylsulfonyl-2-methyl-butanamide], the minimal inhibitory concentration (MIC) in the assay with E. coli ATCC25922 (setting [4]) worked out at 0.125 µg/mL (≈ 0.255 µM); in the assay on P. aeruginosa ATCC27853 (setting [5]), 4 µg/mL (≈ 8.17 µM); in assay [1] (setting [6]) it was 0.25 µg/mL (≈ 0.511 µM); in the assay on K. pneumoniae A-651 (setting [7]), 0.5 µg/mL (≈ 1.02 µM).

Turning to `C[C@@](CCn1cc2cc(C#CC#C[C@H]3C[C@@H]3CO)ccc2n1)(C(=O)NO)S(C)(=O)=O.O=CO` [Example 36, (R)—N-hydroxy-4-(5-(((1S,2S)-2-(hydroxymethyl)cyclopropyl)buta-1,3-diyn-1-yl)-2H-indazol-2-yl)-2-methyl-2-(methylsulfonyl)butanamide formate], the MIC in the assay on E. coli ATCC25922 (setting [4]) was 0.063 µg/mL; in the assay with P. aeruginosa ATCC27853 (setting [5]) it was 0.25 µg/mL; in assay [1] (setting [6]) it was 2 µg/mL; in the assay with K. pneumoniae A-651 (setting [7]) it was 0.125 µg/mL.

As for `C[C@@](CCn1cc2cc(C#CC#C[C@@H]3C[C@H]3CO)ccc2n1)(C(=O)NO)S(C)(=O)=O.O=CO` [Example 37], in the assay on E. coli ATCC25922 (setting [2]), the “MIC for E. coli ATCC25922” value was 0.063 µg/mL. For the same molecule, the “MIC for P. aeruginosa ATCC27853” value with P. aeruginosa ATCC27853 (setting [2]) stood at 0.25 µg/mL. The “MIC for A. Baumannii T6474” value in assay [1] (setting [3]) turned out to be 2 µg/mL. For the same molecule, in the assay on K. pneumoniae A-651 (setting [3]), the “MIC for K. Pneumoniae A-651” value amounted to 0.063 µg/mL.

As for `C[C@@](CCn1cc2c(F)c(C#CC#CC3(O)COC3)ccc2n1)(C(=O)NO)S(C)(=O)=O` [Example 38, (R)-4-{4-fluoro-5-[4-(3-hydroxy-oxetan-3-yl)-buta-1,3-diynyl]-indazol-2-yl}-N-hydroxy-2-methylsulfonyl-2-methyl-butanamide], the MIC in the assay on E. coli ATCC25922 (setting [4]) is 0.5 µg/mL (≈ 1.11 µM); with P. aeruginosa ATCC27853 (setting [5]), 1 µg/mL (≈ 2.22 µM); in assay [1] (setting [6]), > 32 µg/mL; with K. pneumoniae A-651 (setting [7]), 1 µg/mL (≈ 2.22 µM).

Consider `C[C@@](CCn1cc2cc(C#Cc3ccc(CO)cc3F)ccc2n1)(C(=O)NO)S(C)(=O)=O` [Example 39, (R)-4-[5-(2-fluoro-4-hydroxymethyl-phenylethynyl)-indazol-2-yl]-N-hydroxy-2-methylsulfonyl-2-methyl-butanamide], for which the MIC was 0.125 µg/mL (≈ 0.272 µM) with E. coli ATCC25922 (setting [4]), 1 µg/mL (≈ 2.18 µM) in the assay on P. aeruginosa ATCC27853 (setting [5]), 0.25 µg/mL (≈ 0.544 µM) in assay [1] (setting [6]) and 0.125 µg/mL (≈ 0.272 µM) in the assay on K. pneumoniae A-651 (setting [7]).

Consider `CC(CCn1cc2cc(C#Cc3ccc(C4(O)COC4)cc3)c(F)cc2n1)(C(=O)NO)S(C)(=O)=O` (centres unmarked) [Example 40, 4-(6-fluoro-5-((4-(3-hydroxyoxetan-3-yl)phenyl)ethynyl)-2H-indazol-2-yl)-N-hydroxy-2-methyl-2-(methylsulfonyl)butanamide], for which the minimal inhibitory concentration (MIC) was 0.125 µg/mL (≈ 0.249 µM) with E. coli ATCC25922 (setting [4]), 1 µg/mL (≈ 1.99 µM) with P. aeruginosa ATCC27853 (setting [5]), 1 µg/mL (≈ 1.99 µM) in assay [1] (setting [6]) and 0.25 µg/mL (≈ 0.498 µM) with K. pneumoniae A-651 (setting [7]).

As to `C[C@@](CCn1cc2cc(C#Cc3ccc([C@@H]4C[C@H]4CO)cc3)ccc2n1)(C(=O)NO)S(C)(=O)=O` [Example 41, (R)—N-hydroxy-4-(5-((4-((1R,2R)-2-(hydroxymethyl)cyclopropyl)phenyl)ethynyl)-2H-indazol-2-yl)-2-methyl-2-(methylsulfonyl)butanamide], the MIC with E. coli ATCC25922 (setting [4]) was found to be 0.125 µg/mL (≈ 0.26 µM); in the assay with P. aeruginosa ATCC27853 (setting [5]), 1 µg/mL (≈ 2.08 µM); in assay [1] (setting [6]) it was 0.125 µg/mL (≈ 0.26 µM); with K. pneumoniae A-651 (setting [7]), 0.063 µg/mL (≈ 0.131 µM).

`C[C@@](CCn1cc2cc(C#Cc3ccc([C@H]4C[C@@H]4CO)cc3)ccc2n1)(C(=O)NO)S(C)(=O)=O` [Example 42, (R)—N-hydroxy-4-(5-((4-((1S,2S)-2-(hydroxymethyl)cyclopropyl)phenyl)ethynyl)-2H-indazol-2-yl)-2-methyl-2-(methylsulfonyl)butanamide]: the MIC is 0.063 µg/mL (≈ 0.131 µM) in the assay on E. coli ATCC25922 (setting [4]), 0.25 µg/mL (≈ 0.519 µM) in the assay with P. aeruginosa ATCC27853 (setting [5]), 0.125 µg/mL (≈ 0.26 µM) in assay [1] (setting [6]) and 0.063 µg/mL (≈ 0.131 µM) in the assay on K. pneumoniae A-651 (setting [7]).

`C[C@@](CCn1cc2cc(C#Cc3ccc(C4(CO)COC4)cc3)ccc2n1)(C(=O)NO)S(C)(=O)=O` [Example 43, (R)—N-hydroxy-4-(5-((4-(3-(hydroxymethyl)oxetan-3-yl)phenyl)ethynyl)-2H-indazol-2-yl)-2-methyl-2-(methylsulfonyl)butanamide]: the MIC in the assay with E. coli ATCC25922 (setting [4]) came out at 1 µg/mL (≈ 2.01 µM); in the assay with P. aeruginosa ATCC27853 (setting [5]), 2 µg/mL (≈ 4.02 µM); in assay [1] (setting [6]) it was 2 µg/mL (≈ 4.02 µM); in the assay with K. pneumoniae A-651 (setting [7]), 1 µg/mL (≈ 2.01 µM).

As to `C[C@@](CCn1cc2cc(C#Cc3ccc(OCCO)cc3)ccc2n1)(C(=O)NO)S(C)(=O)=O` [Example 44, (R)—N-hydroxy-4-(5-((4-(2-hydroxyethoxy)phenyl)ethynyl)-2H-indazol-2-yl)-2-methyl-2-(methylsulfonyl)butanamide], the MIC in the assay on E. coli ATCC25922 (setting [4]) was 0.125 µg/mL (≈ 0.265 µM); in the assay on P. aeruginosa ATCC27853 (setting [5]), 1 µg/mL (≈ 2.12 µM); in assay [1] (setting [6]) it was 0.25 µg/mL (≈ 0.53 µM); with K. pneumoniae A-651 (setting [7]), 0.25 µg/mL (≈ 0.53 µM).

`C[C@@](CCn1cc2cc(C#Cc3ccc(NC(=O)CO)c(F)c3)ccc2n1)(C(=O)NO)S(C)(=O)=O` [Example 45, (R)-4-(5-((3-fluoro-4-(2-hydroxyacetamido)phenyl)ethynyl)-2H-indazol-2-yl)-N-hydroxy-2-methyl-2-(methylsulfonyl)butanamide]: the MIC is 0.25 µg/mL (≈ 0.497 µM) with E. coli ATCC25922 (setting [4]), 1 µg/mL (≈ 1.99 µM) in the assay on P. aeruginosa ATCC27853 (setting [5]), 8 µg/mL (≈ 15.9 µM) in assay [1] (setting [6]) and 1 µg/mL (≈ 1.99 µM) in the assay with K. pneumoniae A-651 (setting [7]).

For the molecule `C[C@@](O)(C#CC#Cc1ccc2nn(CC[C@](C)(C(=O)NO)S(C)(=O)=O)cc2c1)CO` [Example 46, (R)-4-(5-((R)-5,6-dihydroxy-5-methylhexa-1,3-diyn-1-yl)-2H-indazol-2-yl)-N-hydroxy-2-methyl-2-(methylsulfonyl)butanamide], the MIC was 4 µg/mL (≈ 9.23 µM) with E. coli ATCC25922 (setting [4]), 4 µg/mL (≈ 9.23 µM) in the assay with P. aeruginosa ATCC27853 (setting [5]), > 32 µg/mL in assay [1] (setting [6]) and 8 µg/mL (≈ 18.5 µM) in the assay with K. pneumoniae A-651 (setting [7]).

On to `C[C@@](CCn1cc2cc(C#Cc3ccc(NC(=O)CO)cc3)ccc2n1)(C(=O)NO)S(C)(=O)=O` [Example 47, (R)—N-hydroxy-4-(5-((4-(2-hydroxyacetamido)phenyl)ethynyl)-2H-indazol-2-yl)-2-methyl-2-(methylsulfonyl)butanamide], for which the MIC in the assay on E. coli ATCC25922 (setting [4]) is 0.25 µg/mL (≈ 0.516 µM); with P. aeruginosa ATCC27853 (setting [5]), 1 µg/mL (≈ 2.06 µM); in assay [1] (setting [6]), 1 µg/mL (≈ 2.06 µM); in the assay with K. pneumoniae A-651 (setting [7]) it was 0.5 µg/mL (≈ 1.03 µM).

On to `C[C@@](CCn1cc2cc(C#CC#CC3(N)COC3)ccc2n1)(C(=O)NO)S(C)(=O)=O` [Example 48, (R)-4-(5-((3-aminooxetan-3-yl)buta-1,3-diyn-1-yl)-2H-indazol-2-yl)-N-hydroxy-2-methyl-2-(methylsulfonyl)butanamide formate], for which the MIC is 2 µg/mL in the assay on E. coli ATCC25922 (ATCC25922, read-out: MIC for E. coli ATCC25922); 2 µg/mL with P. aeruginosa ATCC27853 (ATCC27853, read-out: MIC for P. aeruginosa ATCC27853); > 32 µg/mL in assay [1] (T6474, read-out: MIC for A. Baumannii T6474); 4 µg/mL in the assay on K. pneumoniae A-651 (A651, read-out: MIC for K. Pneumoniae A-651).

In the case of `C[C@@](CCn1cc2cc(-c3ccc(NC(=O)CO)cc3)ccc2n1)(C(=O)NO)S(C)(=O)=O` [Example 49, (R)—N-hydroxy-4-(5-(4-(2-hydroxyacetamido)phenyl)-2H-indazol-2-yl)-2-methyl-2-(methylsulfonyl)butanamide], the MIC in the assay on E. coli ATCC25922 (setting [4]) is 4 µg/mL (≈ 8.69 µM); in the assay on P. aeruginosa ATCC27853 (setting [5]), 4 µg/mL (≈ 8.69 µM); in assay [1] (setting [6]) it was > 32 µg/mL; with K. pneumoniae A-651 (setting [7]), 4 µg/mL (≈ 8.69 µM).

For the molecule `C[C@@](CCn1cc2cc(-c3ccc(OCCO)cc3F)ccc2n1)(C(=O)NO)S(C)(=O)=O` [Example 50, (R)-4-(5-(2-fluoro-4-(2-hydroxyethoxy)phenyl)-2H-indazol-2-yl)-N-hydroxy-2-methyl-2-(methylsulfonyl)butanamide], the MIC in the assay with E. coli ATCC25922 (setting [4]) is 0.5 µg/mL (≈ 1.07 µM); with P. aeruginosa ATCC27853 (setting [5]), 2 µg/mL (≈ 4.3 µM); in assay [1] (setting [6]), 2 µg/mL (≈ 4.3 µM); with K. pneumoniae A-651 (setting [7]), 1 µg/mL (≈ 2.15 µM).
